The text below walks through data of ChEMBL document CHEMBL3808383, “Synthesis and antitubercular evaluation of novel dibenzo[b,d]thiophene tethered imidazo[1,2-a]pyridine-3-carboxamides” (Bioorg Med Chem Lett, 2016).

The structures appear in SMILES notation. ≈ marks a conversion by molar mass, not a printed value.

Series [1] deals with Mycobacterium tuberculosis. The series is described as follows: Antimycobacterial activity against Mycobacterium tuberculosis H37Rv ATCC 27294 after 28 days by agar dilution method. The format is functional. The conditions noted are these: H37Rv ATCC 27294, 672 h. Background: In agar dilution the substance is mixed into plates at graded concentrations.
Series [2] in a line: Cytotoxicity against HEK293T cells assessed as cell growth inhibition at 50 ug/mL after 72 hrs by MTT assay. The format is cell-based, HEK-293T. The conditions noted are these: human, read-out: GI. (Tetrazolium dyes change colour on reduction, which living cells bring about.)

As to `NNC(=O)c1ccncc1` [ISONIAZID], the MIC in series [1] (read-out: MIC) is 0.1 µg/mL.

On to `O=C(NCc1ccccc1)c1c(-c2ccc3sc4ccccc4c3c2)nc2ccccn12`, for which the MIC in series [1] (read-out: MIC) stood at 3.13 µg/mL; in series [1] (read-out: MIC100), 7.21 µM. The inhibition at 72 h, 50 ug/mL in series [2] turned out to be 34.6%.

As for `NC(=O)c1cnccn1` [PYRAZINAMIDE], the MIC in series [1] (read-out: MIC) was 50 µg/mL.

The term MIC50 denotes the lowest concentration that inhibits either 50% of growth or 50% of the strains tested, depending on the study. Low readings indicate higher susceptibility, high ones lower susceptibility. `COc1ccc(CCNC(=O)c2c(C)nc3ccccn23)cc1`: the MIC50 in series [1] is 2.63 µM (≈ 0.814 µg/mL).

In the case of `Cc1ccc(CNC(=O)c2c(-c3ccc4sc5ccccc5c4c3)nc3ccccn23)cc1`, the MIC in series [1] (read-out: MIC) was determined as 12.5 µg/mL.

For `O=C(NCc1ccc(Oc2ccccc2)cc1)c1c(-c2ccc3sc4ccccc4c3c2)nc2ccccn12`, the MIC in series [1] (read-out: MIC) was 6.25 µg/mL. The inhibition at 72 h, 50 ug/mL in series [2] was found to be 38.4%.

With `O=C(NCc1ccc(N2CCSCC2)cc1)c1c(-c2ccc3sc4ccccc4c3c2)nc2ccccn12`, the MIC in series [1] (read-out: MIC) was 25 µg/mL.

With `CC(C)(C)c1ccc(Oc2ccc(CNC(=O)c3c(-c4ccc5sc6ccccc6c5c4)nc4ccccn34)cc2)cc1`, in series [1] (read-out: MIC), the MIC worked out at 25 µg/mL.

On to `O=C(NCc1ccc(N2CCC(Cc3ccccc3)CC2)cc1)c1c(-c2ccc3sc4ccccc4c3c2)nc2ccccn12`, for which the MIC was found to be 0.78 µg/mL in series [1] (read-out: MIC) and 1.3 µM in series [1] (read-out: MIC100). The inhibition at 72 h, 50 ug/mL in series [2] was determined as 34.8%.

For `CC(C)(C)c1ccc(CNC(=O)c2c(-c3ccc4sc5ccccc5c4c3)nc3ccccn23)cc1`, the values for the MIC in series [1] (read-out: MIC) and in series [1] (read-out: MIC100) were 1.56 µg/mL and 3.22 µM, respectively. The inhibition at 72 h, 50 ug/mL in series [2] came out at 18.8%.

For `Cc1nc2ccccn2c1C(=O)NCc1ccccc1`, the MIC50 in series [1] was 1.86 µM (≈ 0.493 µg/mL). This lies in the single-digit micromolar range.

Turning to `O=C(NCc1ccc(N2CCN(Cc3ccccc3)CC2)cc1)c1c(-c2ccc3sc4ccccc4c3c2)nc2ccccn12`, in series [1] (read-out: MIC), the MIC was 25 µg/mL.

For the molecule `O=C(NCc1ccc(Cl)cc1)c1c(-c2ccc3sc4ccccc4c3c2)nc2ccccn12`, the MIC in series [1] (read-out: MIC) was 25 µg/mL.

Molecule `CCc1nc2ccccn2c1C(=O)NCc1ccc(Oc2ccc(OC(F)(F)F)cc2)cc1` displayed an MIC50 in series [1] of 0.013 µM (≈ 0.00592 µg/mL). In other words, the double-digit nanomolar range.

With `COc1ccc(CNC(=O)c2c(-c3ccc4sc5ccccc5c4c3)nc3ccccn23)cc1`, the MIC in series [1] (read-out: MIC) stood at 6.25 µg/mL. For the same molecule, in series [2], the inhibition at 72 h, 50 ug/mL was found to be 37%.

Take `O=C(NCc1ccc(N2CCN(c3ccc(Cl)cc3)CC2)cc1)c1c(-c2ccc3sc4ccccc4c3c2)nc2ccccn12`: the results for the MIC in series [1] (read-out: MIC) and in series [1] (read-out: MIC100) were 1.56 µg/mL and 2.5 µM, respectively. The inhibition at 72 h, 50 ug/mL in series [2] was found to be 24.4%.

Turning to `O=C(NCc1ccc(OC(F)(F)F)cc1)c1c(-c2ccc3sc4ccccc4c3c2)nc2ccccn12`, the MIC in series [1] (read-out: MIC) is 25 µg/mL.

Take `CC[C@@H](CO)NCCN[C@@H](CC)CO` [ETHAMBUTOL]: the MIC in series [1] (read-out: MIC) was determined as 3.13 µg/mL.

As for `O=C(NCc1ccc(Oc2ccc(F)cc2)cc1)c1c(-c2ccc3sc4ccccc4c3c2)nc2ccccn12`, the MIC in series [1] (read-out: MIC) turned out to be 25 µg/mL.

Take `O=C(NCc1ccc(F)cc1)c1c(-c2ccc3sc4ccccc4c3c2)nc2ccccn12`: in series [1] (read-out: MIC), the MIC was 3.13 µg/mL. Also, the inhibition at 72 h, 50 ug/mL in series [2] was determined as 25.8%.

Take `O=C(NCc1ccc(C(F)(F)F)cc1)c1c(-c2ccc3sc4ccccc4c3c2)nc2ccccn12`: the MIC in series [1] (read-out: MIC) is 12.5 µg/mL.

Regarding `O=C(NCc1ccc(Oc2ccc(OC(F)(F)F)cc2)cc1)c1c(-c2ccc3sc4ccccc4c3c2)nc2ccccn12`, in series [1] (read-out: MIC), the MIC amounted to 12.5 µg/mL.

`O=C(NCc1ccc(Oc2ccc(Cl)cc2)cc1)c1c(-c2ccc3sc4ccccc4c3c2)nc2ccccn12`: the MIC in series [1] (read-out: MIC) stood at 25 µg/mL.

For the molecule `O=C(NCc1ccc(N2CCOCC2)cc1)c1c(-c2ccc3sc4ccccc4c3c2)nc2ccccn12`, the MIC in series [1] (read-out: MIC) turned out to be 25 µg/mL.

With `O=C(NCc1ccc(N2CCN(c3ccccc3F)CC2)cc1)c1c(-c2ccc3sc4ccccc4c3c2)nc2ccccn12`, the MIC in series [1] (read-out: MIC) amounted to 25 µg/mL.
